Key:
[1] = Measurement of adenosine in plasma of fractured mice; format: in vivo, mouse; conditions: 3 days after implantation of adenosine-loaded biomaterial following tibial fracture
Experimental: Peripheral blood was collected and immediately incubated in ice cold stop solution at a 1:2 ratio (blood to stop solution) to inhibit degradation of adenosine (Feldman M D, et al. (1992) Clin Chem. 38:256-262). Stop solution comprised of 0.2 mM dipyridamole (Tocris, Minneapolis, MN), 5 μM erythro-9 (2-hydroxy-3-nonyl)-adenine (EHNA; Tocris), 62 μM Adenosine 5′-(α,β-methylene) diphosphate sodium salt (APCP), 5 mM EDTA, and 25 IU/mL heparin (Tocris) in PBS. The blood was centrifuged at 2000 rcf for 10 min at 4° C. to separate cells from plasma. Adenosine assay kit (Cell Biolabs, San Diego, CA, Cat #MET-5090) was used to measure adenosine levels from plasma according to manufacturer's protocol. Briefly, a reaction mixture comprised of fluorometric Probe, HRP, adenosine deaminase, purine nucleoside phosphorylase, xanthine oxidase, assay buffer and a control mix comprised of fluorometric Probe, HRP, purine nucleoside phosphorylase, xanthine oxidase, assay buffer were made and mixed with 50 μL of plasma for 15 min. at room temp. The relative fluorescence unit (RFU) was measured using a microplate reader with excitation at 570 nm and emission at 590 nm. Adenosine concentration was determined using a standard curve of known concentrations and subtracted for the background by using the values in control mix.

fractured tibiae = experiment: MicroCT of fractured tibiae (fracture healing); format: in vivo, mouse; conditions: 21 days post-fracture
Experimental: In all experiments, 12-week-old to 16-week-old C57BL/6J male mice (Jackson Laboratory, Bar Harbor, ME) and Lepr-cre; tdTomato reporter mice were used. The average mouse weight was 25 grams and mice were housed in groups of four to five, and kept on a 12-hr light-dark cycle with lights off at 1800 hr. All animals had ad libitum access to chow (PMI LabDiet 5001) and water. Fracture surgeries were performed as previously described (Zeng Y, et al. (2020) Adv Mater. 32:e1906022). Animals were anesthetized by isoflurane and injected with 1 mg/kg buprenorphine SR-LAB (ZooPharm, Laramie, WY). Each mouse was then placed in a supine position with the right tibia disinfected. After skin incision and reflection, proximal to the right knee, a 0.7-mm pin was inserted from the tibial plateau through the medullary cavity to stabilize the tibia, and a cut was made at the tibial midshaft to induce a transverse fracture. Bupivacaine (0.5%; Hospira, Lake Forest, IL) at ˜1 mg/kg body weight was applied at the surgical site following wound closure using 2 reflex clips (5 mm). For animals treated with control and adenosine-loaded macroporous hydrogels, macroporous hydrogels measuring approximately 5 mm (length)×3 mm (width)×1 mm (thick) containing either 1.05±0.1 mg adenosine (ADO) or no adenosine (CTL) were implanted adjacent to the fractures immediately. […] The animals were treated with the macroporous hydrogels with or without adenosine immediately following the fracture. In the cohorts for weight bearing and open field activity measurements, 1 animal from the control group and 1 animal from the treatment group were euthanized due to shift of the inserted pin following fracture.
Tibiae were collected, fixed in 4% PFA at 4° C. for 1 day, and rinsed with PBS. The fixed samples were placed in 50-mL centrifuge tubes with styrofoam spacers and loaded into a microcomputed tomography (microCT) scanner (vivaCT 80, Scanco Medical, Wayne, PA). The samples were scanned at 55 keV at a pixel resolution of 10.4 μm. The reconstruction of the images was performed using microCT Evaluation Program V6.6 (Scanco Medical), followed by generation of radiographs and 3D models using microCT Ray V4.0 (Scanco Medical). Total volume (TV), bone volume (BV) per total volume (TV) (% BV/TV), and bone mineral density (BMD) was quantified using the phantom as a reference based on 100 contiguous slices.

Nc1ncnc2c1ncn2[C@@H]1O[C@H](CO)[C@@H](O)[C@H]1O [adenosine]
adenosine level in peripheral blood vs control biomaterials [1]: No significant increase
callus size (microCT) (fractured tibiae): smaller calluses
cortical bone bridging (microCT) (fractured tibiae): improved bridging of cortical bone with less trabecular bone
total volume (TV) of regenerating calluses vs control (fractured tibiae): lower
fracture healing (microCT images and radiographs) (fractured tibiae; local delivery): accelerated
